Measurements published in article PMC6814295 (Insect biochemistry and molecular biology, 2018).
Blank lines part the entries; values can stand above or below the compound they belong to.

Key:
[1] = molecular target: AaPK1 (Aedes aegypti pyruvate kinase 1) (Aedes aegypti, UniProt Q16F38); assay: LDH-coupled NADH oxidation at […] nm, PEP varied; assay type: biochemical; settings: 1 mM effector, 2 mM ADP, 20 mM MgCl2, 50 mM KCl, pH 7.5, 25 °C
[2] = molecular target: Aedes aegypti pyruvate kinase 1 (Aedes aegypti); assay: crystal structure

Compound: O=C(CO)[C@H](O)[C@H](O)COP(=O)(O)O [R5P, ribulose-5-phosphate]
- LDH-coupled NADH oxidation at 340 nm, PEP varied ([1]; allosteric inhibitor): while R5P is an allosteric inhibitor of AaPK1

- stoichiometry N [2]: 4
Compound: Aedes aegypti pyruvate kinase 1 (enzyme)

Compound: C[C@H](N)C(=O)O [alanine]
- LDH-coupled NADH oxidation at 340 nm, PEP varied ([1]; allosteric activator): AaPK1 is regulated by alanine, glutamine, proline, and serine in a classic allosteric fashion

Compound: O=C(O)[C@@H]1CCCN1 [proline]
- LDH-coupled NADH oxidation at 340 nm, PEP varied ([1]; allosteric activator): AaPK1 is regulated by alanine, glutamine, proline, and serine in a classic allosteric fashion

Compound: NC(=O)CC[C@H](N)C(=O)O [glutamine]
- LDH-coupled NADH oxidation at 340 nm, PEP varied ([1]; allosteric activator): AaPK1 is regulated by alanine, glutamine, proline, and serine in a classic allosteric fashion

Compound: O=P(O)(O)OCC1(O)O[C@H](CO)[C@@H](O)[C@@H]1O (stereo partly shown) [F1P, fructose-1-phosphate]
- LDH-coupled NADH oxidation at 340 nm, PEP varied ([1]; allosteric activator): our results indicate that F1P is an allosteric activator

Compound: N[C@@H](CO)C(=O)O [serine]
- LDH-coupled NADH oxidation at 340 nm, PEP varied ([1]; allosteric activator): AaPK1 is regulated by alanine, glutamine, proline, and serine in a classic allosteric fashion
